Assay results: US10875898B2, “Bioactive protein, use thereof and method for its production” (Koppert B.V., priority 2014, dated 2020)

How the values were obtained:
cucumber = assay: combined application of HYTLO1, HA and 6PP on cucumber seed germination and growth promotion; type: in vivo; set-up: Root length, increase % vs. Control / Plant fresh weight, increase % vs. Control / Plant dry weight, increase % vs. Control / plant height, increase % vs. Control: concentration or dose not given beside the values
Experimental: Tested metabolites include 6PP and Harzianic Acid, and experiments were performed on seed germination, stem or root elongation as well fresh/dry weight. The results shown in Table 1 were obtained by using cucumber seeds coated with the solutions of the tested compounds, that were then transferred in Petri dishes and left to germinate on filter humid paper. First seed germination was evaluated, then the germinated seedlings were transplanted into pots containing sterilised soil. Other two treatments with the purified molecules were performed at 10 days interval, by drenching the soil with the solutions at the final concentrations of 10^−7M for 6PP and HA, and 10^−8M for HYTLO1. In two-compounds application, half dose of each molecule was used. In three-compound applications, one third of the dose of each molecules was used. Each treatments consisted of 8 plants. Results were collected 30 days after seed coating. Control was produced by adding water instead of the molecule solutions. The effect of the minimal amounts of solvents eventually contained in HA and 6PP solution was preliminary tested, with no differences observed in comparison to water control. The results shown in Table 1 that all of the three tested molecules have a significant beneficial effect on seed germination and plant growth, and that they can be synergistically combined for enhanced effectiveness.

tomato = tomato root development (seeds, cuttings); type: in vivo
Experimental: FIG. 9: Effect of purified HYTLO1 application on tomato plant and root development. Tomato roots (left) and tomato cuttings (right) were dipped in a HYTLO1 solution of 0.018 μM.
In order to investigate the effect of HYTLO1 on the development of plants, either at the level of seed germination, germling formation and survival, root formation, stem elongation and thickness, foliar development, as well as general plant size, various experiments were performed with the purified protein. […] The protein clearly stimulated rhizogenesis on different plants. […] Experiments on plants were performed in vivo by watering and spraying tomato plants with a HYTLO1 0.01 μM solution as described in the legend of FIG. 10. In these experiments, the effect of HYTLO1 was also compared with that of the commercial biocontrol strain T. harzianum T22 (applied as spore suspension according the typical application rate of commercial products) and that of the germinating hormone 1-naphthaleneacetic acid (GERMON E—produced by L. Gobbi, Italy) (applied at the typical application rate of commercial products). Applications were made once per week for one month by watering the tomato plants. Results, expressed in terms of plant height and length, root length and weight, number of leaves, stem diameter and weight, are combined and shown in FIG. 10 and FIG. 11.

With “HYTLO1: about 7 KDa Type II hydrophobin protein from Trichoderma longibrachiatum strain MK1, 71 aa, SEQ ID NO: 1” as the substance, how does the “Plant dry weight” value (cucumber; 30 days after seed coating, SD +− 1.3 g) read?
The value was 8.4 g.

What about the “Root length (cm)” value (cucumber; 30 days after seed coating, SD +− 2.1 cm) of the same substance?
The value was 14.6 cm.

What about the “Plant fresh weight” value (cucumber; 30 days after seed coating, SD +− 2.5 g) of the same substance?
The value was 24.76 g.

And the “plant height (cm)” value (cucumber; 30 days after seed coating, drench 10^−7M 6PP and HA, 10^−8M HYTLO1, half or one third dose in combinations, SD +− 2.5 cm)?
Its value is 24.9 cm.

What about the “Seed germination (24 h)” value (cucumber; coated cucumber seeds on humid filter paper, SD +− 9%) of the same substance?
The value was 78%.

And the “Seed germination (24 h), increase % vs. Control” value (cucumber; vs water control)?
Its value is “+30%”.

And the “Plant dry weight, increase % vs. Control” value (cucumber; vs water control, 30 days)?
The value was 51.2%.

What about the “Plant fresh weight, increase % vs. Control” value (cucumber; vs water control, 30 days) of the same substance?
The value was 34.1%.

And the “Root length, increase % vs. Control” value (cucumber; vs water control, 30 days)?
Its value is 17.1%.

What about the “concentration promoting root growth and development” value (tomato; assays on cuttings) of the same substance?
Its value is at least 0.31 µM.

What about the “de novo root formation on tomato cuttings” value (tomato; cuttings dipped in 0.075 and 0.018 μM, after 15 days, no roots in controls) of the same substance?
The value was “formed de novo roots”.

What about the “root apparatus of plantlets vs untreated control” value (tomato; tomato seeds germinated with HYTLO1 10^−6 to 10^−9 M, data not shown) of the same substance?
The value was “more than double”.
